Data as given in patent US20050090522A1 (priority 2001, published 2005).
Where two headings read alike, the source gives them in different places.

Experiments:
[1] = Metabolic stability in pooled human liver microsomes (HLM); details: 3 μM drug
Description: Metabolic Stability Studies of compounds in Liver Microsomes. The metabolic stability of compounds were investigated in pooled liver microsomes from humans. The human liver microsomes were obtained from BD Gentest (Lot #16, Woburn, Mass.) with a protein concentration of 20 mg/ml and a total cytochrome P450 (CYP) concentration of 0.55 nmol/mg protein. A stock solution of drug was prepared in acetonitrile at 1 mM. […] The incubation media consisted of potassium phosphate buffer (0.1 M, pH 7.4), liver microsomes (final concentration 0.9 mg/ml), magnesium chloride (0.033 mM), and a NADPH-regenerating system. […] The test compound was pre-incubated in the media for 2 min. The reaction was initiated by the addition of the cofactors. The incubation was carried out at 37° C. for 10 min. The reaction was terminated by drawing an aliquot of 100 μL from the incubation and adding into 200 μL of acetonitrile containing a reference compound as an […] analytical standard. Following vortex-mixing and centrifugation, an aliquot of 10 μL of the supernatant was analyzed by LC/MS.
GUIDELINES can be used to categorized test substances as low, intermediate or highly cleared compounds.
(§1) For accuracy, the determined measure of viral inhibition is an EC50; but the minimum plasma concentrations which should be maintained in a patient is generally believed to be at least four or five fold higher. […] Lower is better. • 4) Estimating potential exposure in man by measuring parameters such as AUC and rate of clearance by oral and iv dosing in rats. High exposure and low clearance was desired.
The stability of compounds were also evaluated to determine metabolic stability when incubated in in vitro preparations of human liver microsomes (HLM). This is one commonly used predictive system for evaluating the potential for human metabolism and projecting clearance rates in man. Compounds with low clearance rates were most desireable.

HIV-1 = HIV-1 single-round infectious luciferase reporter virus (pseudotype) assay in HeLa CD4 CCR5 cells; type: cell-based
Procedure, shortened: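 Reporter pseudovirus produced in 293 cells infected HeLa cells expressing CD4/CCR5 at MOI ~0.01, with compound present at <10 μM final. Infection was quantified as luciferase luminescence after 72 h.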

HeLa cells = test: Cytotoxicity assay in HeLa cells (MTT dye reduction, CC50)
Description: • Virus production—Human embryonic Kidney cell line, 293, propagated in Dulbecco's Modified Eagle Medium (Life Technologies, Gaithersburg, Md.) containing 10% fetal Bovine serum (FBS, Sigma, St. Louis, Mo.). • Virus infection—Human epithelial cell line, HeLa, expressing the HIV-1 receptors CD4 and CCR^5 was propagated in Dulbecco's Modified Eagle Medium (Life Technologies, Gaithersburg, Md.) containing 10% fetal Bovine serum (FBS, Sigma, St. Louis, Mo.) and supplemented with 0.2 mg/mL Geneticin (Life Technologies, Gaithersburg, Md.) and 0.4 mg/mL Zeocin (Invitrogen, Carlsbad, Calif.). […] Transfections were performed using lipofectAMINE PLUS reagent as described by the manufacturer (Life Technologies, Gaithersburg, Md.). Experiment • 1. Compound was added to HeLa CD4 CCR5 cells plated in 96 well plates at a cell density of 5×10^4 cells per well in 100 μl Dulbecco's Modified Eagle Medium containing 10% fetal Bovine serum at a concentration of […]. • 2. 100 μl of single-round infectious reporter virus in Dulbecco's Modified Eagle Medium was then added to the plated cells and compound at an approximate multiplicity of infection (MOI) of 0.01, resulting in a final volume of 200 μl per well and a final compound concentration of <10 μM. • 3. Samples were harvested 72 h after infection. • 4. Viral infection was monitored by measuring luciferase expression from viral DNA in the infected cells using a luciferase reporter gene assay kit (Roche Molecular Biochemicals, Indianapolis, Ind.). Infected cell supernatants were removed and 50 μl of Dulbecco's Modified Eagle Medium (without phenol red) and 50 μl of luciferase assay reagent reconstituted as described by the manufacturer (Roche Molecular Biochemicals, Indianapolis, Ind.) was added per well. Luciferase activity was then quantified by measuring luminescence using a Wallac microbeta scintillation counter. • 5. […] An EC50 provides a method for comparing the antiviral potency of the compounds of this invention. The effective concentration for fifty percent inhibition (EC50) was calculated with the Microsoft Excel Xlfit curve fitting software. For each compound, curves were generated from percent inhibition calculated at 10 different concentrations by using a four paramenter logistic model (model 205). Table 1 is the key for the data in Tables 2-4. Cytoxicity assays were conducted with the same HeLa using methodology well known in the art.
as §1

[2] = pooled human liver microsomes, Low/Intermediate/High
[3] = Human immunodeficiency virus 1, HeLa-CD4/CCR5, read-out: EC50 Group from TABLE 1, HeLa CD4 CCR5 cells, single-round infectious luciferase reporter virus
[4] = Human immunodeficiency virus 1, HeLa-CD4/CCR5, read-out: EC50 category, HIV-1 single-round reporter virus assay, category 1/2/3 per Table A1 key
[5] = cytotoxicity, Yes = CC50 above 100 uM, No = not
[6] = Human immunodeficiency virus 1, HeLa-CD4/CCR5, read-out: EC50 Group from Table 1, Table 2-1, HeLa CD4 CCR5 cells, single-round luciferase reporter virus

Row | SMILES | HLM predicted human clearance class [1, 2] | EC50 (HIV-1; [3]) [nM] | EC50 (HIV-1; [4]) [nM] | CC50 > 100 uM (HeLa cells; [5]) | EC50 (HIV-1; [6]) [nM] | HLM predicted human clearance class ([1]; 0.9 mg/ml microsomes, 37° C., 10 min) | EC50 (HIV-1; Human immunodeficiency virus 1, HeLa-CD4/CCR5, read-out: EC50 category, initial pseudotype assay, key in Table A1) [nM] | CC50 > 100 uM (HeLa cells; HeLa cells, six days with drug, MTT) | EC50 (HIV-1; Human immunodeficiency virus 1, HeLa-CD4/CCR5, 72 h, read-out: EC50 Group from Table 1, HeLa CD4 CCR5 cells, luciferase reporter virus, harvested 72 h after infection) [nM]
1 | O=C(C(=O)N1CCN(C(=O)c2ccccc2)CC1)c1c[nH]c2c(-c3cncnc3)ncc(F)c12 [Example 42, 1-benzoyl-4-[(4-fluoro-7-(pydin-5-yl)-6-azaindol-3-yl)-oxoacetyl]piperazine] | Low (0-0.100) | < 1000 | 0.2 to 1000 | Yes | – | – | – | – | –
2 | O=C(C(=O)N1CCN(C(=O)c2ccccc2)CC1)c1c[nH]c2c(N3CCCC3)ncc(F)c12 [Example 221] | Low (0-0.100) | < 1000 | 0.2 to 1000 | Yes | – | – | – | – | –
3 | COc1cnc(-c2cnc(NC(C)=O)s2)c2[nH]cc(C(=O)C(=O)N3CCN(C(=O)c4ccccc4)CC3)c12 [Example 78, 1-benzoyl-4-[(4-methoxy-7-(2-acetylamino-thiazol-5-yl)-6-azaindol-3-yl)-oxoacetyl]piperazine] | Intermediate (0.101-0.200) | < 1000 | 0.2 to 1000 | Yes | – | – | – | – | –
4 | C[C@@H]1CN(C(=O)C(=O)c2c[nH]c3c(-n4ccnn4)ncc(F)c23)CCN1C(=O)c1ccccc1 [Example 314] | Low (0-0.100) | – | < 0.2 | Yes | < 1000 | – | – | – | –
5 | COc1cnc(-c2nccs2)c2[nH]cc(C(=O)C(=O)N3CCN(C(=O)c4ccccc4)CC3)c12 [Example 35, 1-(benzoyl)-4-[(4-methoxy-7-(thiazol-2-yl)-6-azaindol-3-yl)-oxoacetyl]piperazine] | Intermediate (0.101-0.200) | < 1000 | < 0.2 | Yes | – | – | – | – | –
6 | COc1cnc(-n2ncc(C)n2)c2[nH]cc(C(=O)C(=O)N3CCN(C(=O)c4ccccc4)[C@H](C)C3)c12 [Example 328] | – | – | – | – | < 1000 | Low (0-0.100) | < 0.2 | Yes | –
7 | Cc1ccn(-c2ccnc3c(C(=O)C(=O)N4CCN(C(=O)c5ccccc5)[C@H](C)C4)c[nH]c23)n1 [Example 356] | Low (0-0.100) | – | 0.2 to 1000 | Yes | – | – | – | – | < 1000
8 | O=C(C(=O)N1CCN(C(=O)c2ccccc2)CC1)c1c[nH]c2c(-c3ncon3)ncc(F)c12 [Example 146] | Intermediate (0.101-0.200) | < 1000 | 0.2 to 1000 | Yes | – | – | – | – | –
9 | CCc1ncn(-c2ncc(OC)c3c(C(=O)C(=O)N4CCN(C(=O)c5ccccc5)CC4)c[nH]c23)n1 [Example 321] | Low (0-0.100) | < 1000 | < 0.2 | Yes | – | – | – | – | –
10 | COc1cnc(-n2ccc(C)n2)c2[nH]cc(C(=O)C(=O)N3CCN(C(=O)c4ccccc4)[C@H](C)C3)c12 [Example 241, (R)-1-benzoyl-2-methyl-4-[(4-methoxy-7-(3-methyl-pyrazol-1-yl)-6-azaindol-3-yl)-oxoacetyl]piperazine] | Low (0-0.100) | – | < 0.2 | Yes | < 1000 | – | – | – | –
11 | CCNC(=O)c1ncn(-c2ncc(OC)c3c(C(=O)C(=O)N4CCN(C(=O)c5ccccc5)CC4)c[nH]c23)n1 [Example 273, 1-benzoyl-4-[(4-methoxy-7-(3-ethylaminocarbonyl-1,2,4-triazol-1-yl)-6-azaindol-3-yl)-oxoacetyl]piperazine] | Low (0-0.100) | < 1000 | < 0.2 | Yes | – | – | – | – | –
12 | COc1cnc(-c2ccco2)c2[nH]cc(C(=O)C(=O)N3CCN(C(=O)c4ccccc4)CC3)c12 [Example 73, 1-(benzoyl)-4-[(4-methoxy-7-(furan-2-yl)-6-azaindol-3-yl)-oxoacetyl]piperazine] | Intermediate (0.101-0.200) | < 1000 | < 0.2 | Yes | – | – | – | – | –
13 | O=C(C(=O)N1CCN(C(=O)c2ccccc2)CC1)c1c[nH]c2c(-c3ncco3)ncc(F)c12 [Example 140] | Intermediate (0.101-0.200) | < 1000 | 0.2 to 1000 | Yes | – | – | – | – | –
14 | CCc1ccn(-c2ncc(OC)c3c(C(=O)C(=O)N4CCN(C(=O)c5ccccc5)[C@H](C)C4)c[nH]c23)n1 [Example 230, (R)-1-benzoyl-2-methyl-4-[(4-methoxy-7-(3-ethyl-pyrazol-1-yl)-6-azaindol-3-yl)-oxoacetyl]piperazine] | Intermediate (0.101-0.200) | – | < 0.2 | Yes | < 1000 | – | – | – | –
15 | Cc1ccnn1-c1ncc(F)c2c(C(=O)C(=O)N3CCN(C(=O)c4ccccc4)CC3)c[nH]c12 [Example 312] | Low (0-0.100) | < 1000 | 0.2 to 1000 | Yes | – | – | – | – | –
16 | COc1cnc(-c2nc(C)n[nH]2)c2[nH]cc(C(=O)C(=O)N3CCN(C(=O)c4ccccc4)CC3)c12 [Example 342] | Low (0-0.100) | < 1000 | < 0.2 | Yes | – | – | – | – | –
17 | Cc1ncn(-c2ncc(F)c3c(C(=O)C(=O)N4CCN(C(=O)c5ccccc5)[C@H](C)C4)c[nH]c23)n1 [Example 315] | Low (0-0.100) | – | < 0.2 | Yes | < 1000 | – | – | – | –
18 | COc1cnc(-n2cnc(C(=O)N(C)C)n2)c2[nH]cc(C(=O)C(=O)N3CCN(C(=O)c4ccccc4)CC3)c12 [Example 275, 1-benzoyl-4-[(4-methoxy-7-(3-dimethylaminocarbonyl-1,2,4-triazol-1-yl)-6-azaindol-3-yl)-oxoacetyl]piperazine] | Low (0-0.100) | < 1000 | < 0.2 | Yes | – | – | – | – | –
19 | O=C(C(=O)N1CCN(C(=O)c2ccccc2)CC1)c1c[nH]c2c(-c3c[nH]nn3)ncc(F)c12 [Example 299] | Low (0-0.100) | < 1000 | < 0.2 | No | – | – | – | – | –
20 | COc1cnc(-c2cc[nH]n2)c2[nH]cc(C(=O)C(=O)N3CCN(C(=O)c4ccccc4)CC3)c12 [Example 39, 1-benzoyl-4-[(4-methoxy-7-(pyrazol-3-yl)-6-azaindol-3-yl)-oxoacetyl]piperazine] | Intermediate (0.101-0.200) | < 1000 | 0.2 to 1000 | No | – | – | – | – | –
